For orientation: IC50 means the concentration that gives 50% inhibition. Low readings indicate greater potency, high ones weaker potency. As usually defined, the AUC is concentration integrated over time. Read a low AUC as low exposure. What is called AUC(0-inf) is total exposure, with the tail of the curve extrapolated. Lower therefore signals less exposure. One may read the Cmax as the maximum level reached in the sampled fluid or tissue. Usually clearance stands for the rate of elimination divided by the concentration. Low readings indicate inefficient removal, high ones efficient removal.

The values that follow come from patent US20200009262A1, “TARGETED CONSTRUCTS AND FORMULATIONS THEREOF” (TARVEDA THERAPEUTICS, INC., priority 2016, published 2020).

Like-named read-outs stand apart in the source and are kept apart here. Some results are limits rather than exact numbers.

The nature of one data set: Once/week MTD. The following applies: in vivo.
For data set [1], the system named is SW48 xenograft model (human colorectal cancer). Briefly: Efficacy study in SW48 xenograft model, tumor growth inhibition. The format is in vivo. The following applies: irinotecan 50 mg/kg once/week for two weeks. The protocol:
Efficacy of Compound 3 was tested in an SW48 xenograft model (human colorectal cancer). Efficacies of the other compounds in Table 2 were also tested. All conjugates were dosed twice/week for two weeks.

The next data set has as its system SW48 cells. Briefly: IC50 in SW48 cells. The format is cell-based, human.
Data set [2] can be described thus: In vivo half-life / NCA pharmacokinetics of albumin binding conjugates in rat plasma. The settings on record: for half-life: iv, 1 mg/kg. Also on record: species or system rats. The protocol: Compound 3 and Compound 4 were administered to rats at 1 mg/kg via IV. […] Therefore, the concentration of Compound 3′ is measured after treating plasma samples at a low pH.

Data set [3] in a line: Blood pressure study, tail cuff, 10 minute intravenous infusion. The following applies: 400 nmol/kg infused over 10 minutes; significant drop = drop of at least 10%. The format is in vivo, Sprague Dawley rats.
Method: An external pumping device was used to deliver the target dose volume for each animal over a 10 minute dosing interval. Blood pressure was measured by tail cuff using the CODA Non-Invasive Blood Pressure system. Animals were placed in restrainers with the tail cuff on. The animals and the restrainers were then placed on a heating pad for approximately 5 minutes. Following the 5 minute heating pad acclimation an additional acclimation data collection took place prior to dose initiation for approximately 5 minutes. Blood pressure data began at dose initiation and was collected through at least 30 minutes postdose. […] Test articles were infused over 10 minutes. The start and stop times for the following processes were documented. The following parameters were collected: diastolic pressure, systolic pressure, mean blood pressure, heart rate, tail blood flow, and tail blood volume.
The conditions of data set [4]: transthyretin, 55 KDa serum protein, background statement; cited from earlier work.
Where [5] appears, read: Day 4, conjugates twice/week for two weeks (3, 4, 7, 8: 2.0 mg/kg; 5, 6: 0.025 mg/kg).
[6] abbreviates: Day 8, conjugates twice/week for two weeks (3, 4, 7, 8: 2.0 mg/kg; 5, 6: 0.025 mg/kg).
[7] abbreviates: in vivo, IV 1.0 mg/kg, plasma, measured as Compound 3′ after low pH treatment.
Where [8] appears, read: Day 10, conjugates 2.0 mg/kg twice/week for two weeks.
Setting [9] is: Day 14, conjugates 2.0 mg/kg twice/week for two weeks.
Setting [10] is: Day 17, conjugates 2.0 mg/kg twice/week for two weeks.
Where [11] appears, read: Day 21, conjugates 2.0 mg/kg twice/week for two weeks.

In turn, `COc1ccc(C2=CN3C(=O)c4cc(OC)c(OCCCOc5cc6c(cc5OC)C(=O)N5C=C(c7ccc(NC(=O)[C@H](C)NC(=O)[C@@H](NC(=O)CCCCCN8C(=O)CC(SCCC(=O)NCCCC[C@H](NC(C)=O)C(=O)N9CCC[C@H]9C(=O)N[C@@H](CC(C)C)C(=O)N9CCC[C@H]9C(=O)N(C)[C@@H](CCCNC(=N)N)C(=O)N[C@H](C(=O)N[C@@H](CCCNC(=N)N)C(=O)N[C@@H](Cc9ccc(O)cc9)C(=O)O)C(C)(C)C)C8=O)C(C)C)cc7)C[C@H]5C=N6)cc4N=C[C@@H]3C2)cc1` (stereo partly drawn) [Compound 6] returned an MTD in “Once/week MTD” of 0.05 mg/kg. Also, the TGI % in data set [1] (setting [5]) is 22.2%; in data set [1] (setting [6]) it was 28.3%. Also, the midpoint of inhibition with SW48 cells, the IC50, lay at 4 nM.

`COc1cc2cc(c1Cl)N(C)C(=O)C[C@H](OC(=O)[C@H](C)N(C)C(=O)CCSC1CC(=O)N(CCCNC(=O)CNC(=O)[C@H](CC(C)C)NC(=O)[C@H](Cc3ccccc3)NC(=O)CNC(=O)CCC(=O)NCCCC[C@H](NC(C)=O)C(=O)N3CCC[C@H]3C(=O)N(C)[C@@H](CCCNC(=N)N)C(=O)N[C@@H](CCCNC(=N)N)C(=O)N3CCC[C@H]3C(=O)N[C@@H](Cc3ccc(O)cc3)C(=O)N[C@H](C(=O)N[C@@H](CC(C)C)C(=O)O)C(C)(C)C)C1=O)[C@]1(C)O[C@H]1[C@H](C)[C@@H]1C[C@@](O)(NC(=O)O1)[C@H](OC)/C=C/C=C(\C)C2` (stereo partly drawn) [Compound 4] gave an MTD in the data set “Once/week MTD” of over 8 mg/kg. Moreover, the “degradation in rat plasma compared with albumin bound Compound 3” value in data set [2] (IV 1 mg/kg, FIG. 3) is reported as “degraded faster”. The IC50 with SW48 cells was 3.7 nM. For the same compound, in data set [3], the “mean blood pressure change” value is “significant drop in mean blood pressure”.

With Transthyretin, in data set [4], the in vivo half-life result is “around 48 h”.

The compound `COc1cc2cc(c1Cl)N(C)C(=O)C[C@H](OC(=O)[C@H](C)N(C)C(=O)CCSC1CC(=O)N(CCCNC(=O)CNC(=O)[C@H](CC(C)C)NC(=O)[C@H](Cc3ccccc3)NC(=O)CNC(=O)CCC(=O)NCCCC[C@H](NC(=O)c3ccc(/C(C)=N/NC(=O)CCCCCN4C(=O)C=CC4=O)cc3)C(=O)N3CCC[C@H]3C(=O)N(C)[C@@H](CCCNC(=N)N)C(=O)N[C@@H](CCCNC(=N)N)C(=O)N3CCC[C@H]3C(=O)N[C@@H](Cc3ccc(O)cc3)C(=O)N[C@H](C(=O)N[C@@H](CC(C)C)C(=O)O)C(C)(C)C)C1=O)[C@]1(C)O[C@H]1[C@H](C)[C@@H]1C[C@@](O)(NC(=O)O1)[C@H](OC)/C=C/C=C(\C)C2` (stereo partly drawn) [Compound 3] showed an MTD in the data set “Once/week MTD” of 4 to 8 mg/kg. The “rat plasma half-life relative to Compound 4 (does not bind albumin)” value in data set [2] (IV 1 mg/kg) is 80 fold. In data set [2] (setting [7]), this compound gave an AUC of 33.7 µM·h, an AUC(0-inf) of 39.3 µM·h, a Cmax of 4.69 µM and a clearance of 0.16 mL/min/kg. Moreover, in data set [2] (in vivo, IV 1.0 mg/kg, plasma, measured as Compound 3′ after low pH treatment, read-out: Vss), the Vd was 0.107 L/kg. Moreover, the half-life in data set [2] (in vivo, IV 1.0 mg/kg, plasma, measured as Compound 3′ after low pH treatment of plasma samples, read-out: t½ (converted)) was 9.32 h. The half-life in data set [2] (in vivo, IV 1 mg/kg, read-out: rat plasma half-life (converted)) is 9.3 h. Besides, the “mean blood pressure change” value in data set [3] is recorded as “no significant drop in mean blood pressure”.

As for `COc1cc2cc(c1Cl)N(C)C(=O)C[C@H](OC(=O)[C@H](C)N(C)C(=O)CCSC1CC(=O)N(CCCNC(=O)CNC(=O)[C@H](CC(C)C)NC(=O)[C@H](Cc3ccccc3)NC(=O)CNC(=O)CCC(=O)NCCCC[C@H](NC(C)=O)C(=O)N3CCC[C@H]3CN[C@@H](CC(C)C)C(=O)N3CCC[C@H]3C(=O)N(C)[C@@H](CCCNC(=N)N)C(=O)N[C@H](C(=O)N[C@@H](CCCNC(=N)N)C(=O)N[C@@H](Cc3ccc(O)cc3)C(=O)O)C(C)(C)C)C1=O)[C@]1(C)O[C@H]1[C@H](C)[C@@H]1C[C@@](O)(NC(=O)O1)[C@H](OC)/C=C/C=C(\C)C2` (stereo partly drawn) [Compound 7], the MTD in the data set “Once/week MTD” was over 8 mg/kg. Further, the TGI % in data set [1] (setting [5]) is −11%; in data set [1] (setting [6]) it was −22.6%; in data set [1] (setting [8]), −29.7%; in data set [1] (setting [9]), −32%; in data set [1] (setting [10]), −48.3%; in data set [1] (setting [11]) it was −52.8%.

As to `CCc1c2c(nc3ccc(OC(=O)N4CCC(N5CCCCC5)CC4)cc13)-c1cc3c(c(=O)n1C2)COC(=O)[C@]3(O)CC` [Irinotecan, irinotecan, reference compound], in the data set “Once/week MTD”, the MTD was 50 mg/kg. The TGI % is 10% in data set [1] (setting [6]); 12.8% in data set [1] (setting [8]); 33% in data set [1] (setting [9]); 34.9% in data set [1] (setting [10]); 33.9% in data set [1] (setting [11]).

`COc1ccc(C2=CN3C(=O)c4cc(OC)c(OCCCOc5cc6c(cc5OC)C(=O)N5C=C(c7ccc(NC(=O)[C@H](C)NC(=O)[C@@H](NC(=O)CCCCCN8C(=O)CC(SCCC(=O)NCCCC[C@H](NC(C)=O)C(=O)N9CCC[C@H]9C(=O)N(C)[C@@H](CCCNC(=N)N)C(=O)N[C@@H](CCCNC(=N)N)C(=O)N9CCC[C@H]9C(=O)N[C@@H](Cc9ccc(O)cc9)C(=O)N[C@H](C(=O)N[C@@H](CC(C)C)C(=O)O)C(C)(C)C)C8=O)C(C)C)cc7)C[C@H]5C=N6)cc4N=C[C@@H]3C2)cc1` (stereo partly drawn) [Compound 5] had an MTD in the data set “Once/week MTD” of 0.05 mg/kg. For the same compound, the results for the TGI % in data set [1] (setting [5]) and in data set [1] (setting [6]) were 21.3% and 45.9%, respectively. Further, the IC50 in the data set on SW48 cells was 1.8 nM.
